Experimental data as given in publication PMC7872314, “Modeling Bioavailable Concentrations in Zebrafish Cell Lines and Embryos Increases the Correlation of Toxicity Potencies across Test Systems” (Environmental Science & Technology, 2020).
Where two headings read alike, the source gives them in different places.

Key:
[1] = tested on: ZF4 (fibroblasts) cell line; assay: Neutral red, absorbance (NRa), AB/CFDA/NR multiplex, lysosome stability; format: cell-based, zebrafish (Danio rerio); settings: Danio rerio, Fibroblast
[2] = tested on: ZFL (hepatocytes) cell line; assay: cells; format: cell-based, zebrafish (Danio rerio); settings: Danio rerio, Hepatocyte
[3] = tested on: ZFL (hepatocytes) cell line; assay: cells; format: cell-based, zebrafish (Danio rerio); settings: Danio rerio, Hepatocyte; remark: listed apart in the source
zebrafish embryos [4] = assay: animal or person; format: in vivo, zebrafish (Danio rerio); settings: for EC50: Danio rerio
[5] = tested on: ZFL (hepatocytes) cell line; assay: cells; format: cell-based, zebrafish (Danio rerio); settings: Danio rerio, Hepatocyte; remark: listed apart in the source
[6] = tested on: zebrafish cell lines vs zebrafish embryo; assay: Potency ratios IC50;x/EC50;x (cytotoxicity assays vs mFET); design: species or system zebrafish (Danio rerio)
[7] = tested on: ZF4 (fibroblasts) cell line; assay: Neutral red, fluorescence (NRf), AB/CFDA/NR multiplex, lysosome stability; format: cell-based, zebrafish (Danio rerio); settings: Danio rerio, Fibroblast
ZF4 and ZFL cell lines = assay: Cytotoxicity assays, all endpoints, both cell lines (mean/range); format: cell-based, zebrafish (Danio rerio); settings: 48 h, mean of all cytotoxicity endpoints (without LDH) in ZF4 and ZFL
[8] = tested on: ZF4 (fibroblasts) cell line; assay: ATP assay (ATP/LDH multiplex), ATP metabolism; format: cell-based, zebrafish (Danio rerio); settings: Danio rerio, Fibroblast
[9] = tested on: ZFL (hepatocytes) cell line; assay: cells; format: cell-based, zebrafish (Danio rerio); settings: Danio rerio, Hepatocyte; remark: listed apart in the source
[10] = tested on: ZFL (hepatocytes) cell line; assay: cells; format: cell-based, zebrafish (Danio rerio); settings: Danio rerio, Hepatocyte; remark: listed apart in the source
[11] = tested on: ZF4 (fibroblasts) cell line; assay: BCA assay (MTS/BCA multiplex), protein amount; format: cell-based, zebrafish (Danio rerio); settings: Danio rerio, Fibroblast
[12] = tested on: ZF4 (fibroblasts) cell line; assay: MTS assay (MTS/BCA multiplex), NAD(P)H metabolism; format: cell-based, zebrafish (Danio rerio); settings: Danio rerio, Fibroblast
[13] = tested on: ZFL (hepatocytes) cell line; assay: cells; format: cell-based, zebrafish (Danio rerio); settings: Danio rerio, Hepatocyte; remark: listed apart in the source
[14] = tested on: diverse mammalian cell assay results; design: method as in https://comptox.epa.gov/dashboard/; settings: COMPTOX; ref https://comptox.epa.gov/dashboard/; read-out: median AC50; cited from earlier work
[15] = ref Comptox, PubChem or DrugBank; cited from earlier work
[16] = tested on: ZF4 (fibroblasts) cell line; assay: alamarBlue (AB) endpoint of AB/CFDA/NR multiplex, cellular respiration; format: cell-based, zebrafish (Danio rerio); settings: Danio rerio, Fibroblast
[17] = tested on: ZF4 (fibroblasts) cell line; assay: CFDA endpoint of AB/CFDA/NR multiplex, membrane stability; format: cell-based, zebrafish (Danio rerio); settings: Danio rerio, Fibroblast
[18] = tested on: ZFL (hepatocytes) cell line; assay: cells; format: cell-based, zebrafish (Danio rerio); settings: Danio rerio, Hepatocyte; remark: listed apart in the source
zebrafish embryos [19] = tested on: zebrafish embryos; design: method as in earlier work; settings: nominal, cited from earlier work

Compound: COC(=O)Nc1nc2ccc(Sc3ccccc3)cc2[nH]1 [Fenbendazole, fenbendazole]
- IC50 ([1]; NR-abs - ZF4, log10 of IC50, read-out: LogIC50 (converted)): 1.55 µM
- IC50 ([1]; NR-abs - ZF4, read-out: IC50): 1.55 µM
- IC50 ([1]; ZF4, 48 h exposure, nominal, log10, read-out: logIC50 (log10 IC50;nom) NRa (converted)): 1.55 µM
- IC50 ([1]; ZF4, 48 h exposure, nominal, read-out: IC50;nom NRa): 1.55 µM
- IC50 ([1]; ZF4 cell line, NRa endpoint, nominal, read-out: IC50;nom): 0.46 µg/mL
- IC50 ([2]; MTS - ZFL, log10 of IC50, read-out: LogIC50 (converted)): 0.166 µM
- IC50 ([2]; MTS - ZFL, read-out: IC50): 0.166 µM
- IC50 ([2]; ZFL, 48 h exposure, nominal, log10, read-out: logIC50 (log10 IC50;nom) MTS (converted)): 0.166 µM
- IC50 ([2]; ZFL, 48 h exposure, nominal, read-out: IC50;nom MTS): 0.166 µM
- IC50 ([3]; NR-fluo - ZFL, log10 of IC50, read-out: LogIC50 (converted)): 0.584 µM
- IC50 ([3]; NR-fluo - ZFL, read-out: IC50): 0.584 µM
- IC50 ([3]; ZFL, 48 h exposure, nominal, log10, read-out: logIC50 (log10 IC50;nom) NRf (converted)): 0.589 µM
- IC50 ([3]; ZFL, 48 h exposure, nominal, read-out: IC50;nom NRf): 0.584 µM
- difference in toxicity (EC50;nom) between 48 hpf and 144 hpf (zebrafish embryos [4]; 48 hpf time point less sensitive than 144 hpf): approximately the same
- log EC50;nom (mFET) (zebrafish embryos [4]; 48 hpf, nominal, log10, listed as Fen): -7.115 M
- EC50 (zebrafish embryos [4]; 48 hpf, nominal, log10, read-out: log EC50;nom (mFET) (converted)): 0.0776 µM
- EC50 (zebrafish embryos [4]; 48 hpf, nominal, read-out: EC50;nom (embryo)): 0.02 µg/mL
- EC50 (zebrafish embryos [4]; read-out: EC50 48hpf): 0.0768 µM
- EC50 (zebrafish embryos [4]; read-out: EC50;nom (mFET)): 0.0768 µM
- IC50 ([5]; ATP - ZFL, log10 of IC50, read-out: LogIC50 (converted)): 9.85 µM
- IC50 ([5]; ATP - ZFL, read-out: IC50): 9.85 µM
- IC50 ([5]; ZFL, 48 h exposure, nominal, log10, read-out: logIC50 (log10 IC50;nom) ATP (converted)): 9.77 µM
- IC50 ([5]; ZFL, 48 h exposure, nominal, read-out: IC50;nom ATP): 9.85 µM
- potency ratio IC50;nom/EC50;nom (median) ([6]; median over cytotoxicity endpoints, nominal, 48 h cells / 48 hpf mFET): 33.3
- difference in sensitivity between embryo (EC50;nom) and cells (IC50;nom) ([6]; nominal concentrations, higher potency in the mFET): two to three log-scales more sensitive in the mFET
- IC50 ([7]; NR-fluo - ZF4, log10 of IC50, read-out: LogIC50 (converted)): 10.4 µM
- IC50 ([7]; NR-fluo - ZF4, read-out: IC50): 10.4 µM
- IC50 ([7]; ZF4, 48 h exposure, nominal, log10, read-out: logIC50 (log10 IC50;nom) NRf (converted)): 10.5 µM
- IC50 ([7]; ZF4, 48 h exposure, nominal, read-out: IC50;nom NRf): 10.4 µM
- IC50 (ZF4 and ZFL cell lines; Danio rerio, log10, read-out: Mean log IC50nom (converted)): 2.4 µM
- Mean log IC50nom (ZF4 and ZFL cell lines; log10, listed as Fen): -5.623 M
- IC50 ([8]; ATP - ZF4, log10 of IC50, read-out: LogIC50 (converted)): 7.49 µM
- IC50 ([8]; ATP - ZF4, read-out: IC50): 7.49 µM
- IC50 ([8]; ZF4, 48 h exposure, nominal, log10, read-out: logIC50 (log10 IC50;nom) ATP (converted)): 7.41 µM
- IC50 ([8]; ZF4, 48 h exposure, nominal, read-out: IC50;nom ATP): 7.49 µM
- IC50 ([9]; BCA - ZFL, log10 of IC50, read-out: LogIC50 (converted)): 0.125 µM
- IC50 ([9]; BCA - ZFL, read-out: IC50): 0.125 µM
- IC50 ([9]; ZFL, 48 h exposure, nominal, log10, read-out: logIC50 (log10 IC50;nom) BCA (converted)): 0.126 µM
- IC50 ([9]; ZFL, 48 h exposure, nominal, read-out: IC50;nom BCA): 0.125 µM
- IC50 ([10]; NR-abs - ZFL, log10 of IC50, read-out: LogIC50 (converted)): 0.532 µM
- IC50 ([10]; NR-abs - ZFL, read-out: IC50): 0.532 µM
- IC50 ([10]; ZFL, 48 h exposure, nominal, log10, read-out: logIC50 (log10 IC50;nom) NRa (converted)): 0.537 µM
- IC50 ([10]; ZFL, 48 h exposure, nominal, read-out: IC50;nom NRa): 0.532 µM
- IC50 ([11]; BCA - ZF4, log10 of IC50, read-out: LogIC50 (converted)): 1.15 µM
- IC50 ([11]; BCA - ZF4, read-out: IC50): 1.15 µM
- IC50 ([11]; ZF4, 48 h exposure, nominal, log10, read-out: logIC50 (log10 IC50;nom) BCA (converted)): 1.15 µM
- IC50 ([11]; ZF4, 48 h exposure, nominal, read-out: IC50;nom BCA): 1.15 µM
- IC50 ([12]; MTS - ZF4, log10 of IC50, read-out: LogIC50 (converted)): 5.84 µM
- IC50 ([12]; MTS - ZF4, read-out: IC50): 5.84 µM
- IC50 ([12]; ZF4, 48 h exposure, nominal, log10, read-out: logIC50 (log10 IC50;nom) MTS (converted)): 5.89 µM
- IC50 ([12]; ZF4, 48 h exposure, nominal, read-out: IC50;nom MTS): 5.84 µM
- IC50 ([13]; CFDA - ZFL, log10 of IC50, read-out: LogIC50 (converted)): 21.4 µM
- IC50 ([13]; CFDA - ZFL, read-out: IC50): 21.4 µM
- IC50 ([13]; ZFL, 48 h exposure, nominal, log10, read-out: logIC50 (log10 IC50;nom) CFDA (converted)): 21.4 µM
- IC50 ([13]; ZFL, 48 h exposure, nominal, read-out: IC50;nom CFDA): 21.4 µM
- AC50 [14]: 0.9 µM
- BCF [15]: 1.18E+03
- Physiological charge [15]: 0
- Water Solubility [15]: insoluble
- logKoa [15]: 9.49
- logKow [15]: 3.21
- pKa (Strongest Acidic) [15]: 9.59
- pKa (Strongest Basic) [15]: 4.06
- w_solubility (water solubility) [15]: 26.7 µM
- IC50 ([16]; AB - ZF4, log10 of IC50, read-out: LogIC50 (converted)): 3.57 µM
- IC50 ([16]; AB - ZF4, read-out: IC50): 3.57 µM
- IC50 ([16]; ZF4, 48 h exposure, nominal, log10, read-out: logIC50 (log10 IC50;nom) AB (converted)): 3.55 µM
- IC50 ([16]; ZF4, 48 h exposure, nominal, read-out: IC50;nom AB): 3.57 µM
- IC50 ([17]; CFDA - ZF4, log10 of IC50, read-out: LogIC50 (converted)): 49.5 µM
- IC50 ([17]; CFDA - ZF4, read-out: IC50): 49.5 µM
- IC50 ([17]; ZF4, 48 h exposure, nominal, log10, read-out: logIC50 (log10 IC50;nom) CFDA (converted)): 49 µM
- IC50 ([17]; ZF4, 48 h exposure, nominal, read-out: IC50;nom CFDA): 49.5 µM
- IC50 ([18]; AB - ZFL, log10 of IC50, read-out: LogIC50 (converted)): 0.985 µM
- IC50 ([18]; AB - ZFL, read-out: IC50): 0.985 µM
- IC50 ([18]; ZFL, 48 h exposure, nominal, log10, read-out: logIC50 (log10 IC50;nom) AB (converted)): 0.977 µM
- IC50 ([18]; ZFL, 48 h exposure, nominal, read-out: IC50;nom AB): 0.985 µM
- EC50 (zebrafish embryos [19]; 144 hpf, converted): 0.0802 µM
- logEC50 144 hpf (zebrafish embryos [19]; log10): -7.0959 M
